Measured values as given in the supplement of paper PMC12317010.
Counter-ions that a name gives are not always drawn.

Assay: collision cross section in nitrogen (drift tube, single-field); higher = larger gas-phase ion size
[1] = ion type: [M-H], ion source: ESI, ion mode: Negative
[2] = ion type: [M+H], ion source: APCI, ion mode: Positive
[3] = ion type: [M+H], ion source: ESI, ion mode: Positive
[4] = ion type: [M+Na], ion source: ESI, ion mode: Positive
[5] = ion type: [M+], ion source: APCI, ion mode: Positive
[6] = ion source: APCI, ion mode: Positive, ion type: [M]+ (permanent cation)
[7] = ion source: ESI, ion mode: Positive, ion type: [M]+ (permanent cation)
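Further: chemical standards at 10 µM analysed by drift tube IMS-QTOF MS in about 3.95 torr nitrogen, mean of duplicate injections differing ≤1%, mass error below 10 ppm.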

| Structure (SMILES) | collision cross section in nitrogen [1] [Å²] | collision cross section in nitrogen [4] [Å²] | other results |
| --- | --- | --- | --- |
| CCCCN(CC)c1c([N+](=O)[O-])cc(C(F)(F)F)cc1[N+](=O)[O-] [Benfluralin] | 168.5 |  |  |
| CCOC(=O)CCN(SN(C)C(=O)Oc1cccc2c1OC(C)(C)C2)C(C)C [Benfuracarb] |  | 201.5 | collision cross section in nitrogen [2]: 197.3 Å²; collision cross section in nitrogen [3]: 197.3 Å² |
| O=C(Nc1ccccc1)c1ccccc1I [Benodanil] | 155.4 | 161.1 | collision cross section in nitrogen [2]: 146.6 Å²; collision cross section in nitrogen [3]: 146.3 Å² |
| COC(=O)c1ccccc1CS(=O)(=O)NC(=O)Nc1nc(OC)cc(OC)n1 [Bensulfuron-methyl] |  | 197.8 |  |
| CC(C)N1C(=O)c2ccccc2NS1(=O)=O [Bentazone] | 146.9 |  |  |
| c1ccc2cc3c(ccc4ccccc43)cc2c1 [Benz(a)anthracene] |  |  | collision cross section in nitrogen [5]: 146.3 Å² |
| O=C(O)CONC(=O)c1ccccc1 [Benzadox] |  | 150.9 |  |
| CCCCCCCC[N+](C)(C)Cc1ccccc1 [Benzalkonium chloride C8 (BAC C8)] |  |  | collision cross section in nitrogen [6]: 170.1 Å²; collision cross section in nitrogen [7]: 171.3 Å² |
| CCCCCCCCCCCC[N+](C)(C)Cc1ccccc1 [Benzalkonium chloride C12 (BAC C12)] |  |  | collision cross section in nitrogen [6]: 193 Å²; collision cross section in nitrogen [7]: 193.9 Å² |
| CCCCCCCCCCCCCCCC[N+](C)(C)Cc1ccccc1 [Benzalkonium chloride C16 (BAC C16)] |  |  | collision cross section in nitrogen [6]: 208.9 Å² |
| CCCCCCCCCCCCCCCCCC[N+](C)(C)Cc1ccccc1 [Benzalkonium chloride C18 (BAC C18)] |  |  | collision cross section in nitrogen [6]: 215.1 Å²; collision cross section in nitrogen [7]: 216.6 Å² |
| CCOC(=O)Cc1ccccc1 [Benzeneacetic acid, ethyl ester] | 144.3 |  |  |
| N=C(N)c1ccccc1 [Benzenecarboximidamide, monohydrochloride] |  |  | collision cross section in nitrogen [2]: 124.7 Å²; collision cross section in nitrogen [3]: 125 Å² |
| O=S(=O)(O)c1ccccc1 [Benzenesulfonic acid] | 127.2 |  |  |
| c1ccc2[nH]cnc2c1 [Benzimidazole] |  |  | collision cross section in nitrogen [2]: 121 Å²; collision cross section in nitrogen [3]: 121.8 Å² |
| c1ccc2c(c1)ccc1ncccc12 [Benzo(f)quinoline] |  |  | collision cross section in nitrogen [2]: 134.7 Å²; collision cross section in nitrogen [3]: 134.8 Å²; collision cross section in nitrogen [5]: 130.3 Å² |
| c1ccc2c(c1)c1cccc3ccc4cccc2c4c31 [Benzo[e]pyrene] |  |  | collision cross section in nitrogen [5]: 149.7 Å² |
| c1ccc2cc3c(cc2c1)-c1cccc2cccc-3c12 [Benzo[k]fluoranthene] |  |  | collision cross section in nitrogen [5]: 151.3 Å² |
| Oc1nc2ccccc2s1 [Benzothiazolone] | 123.7 |  |  |
| O=C(OCc1ccccc1)c1ccc(O)cc1 [Benzyl 4-hydroxybenzoate] | 158.5 |  |  |
| CCCCOC(=O)c1ccccc1C(=O)OCc1ccccc1 [Benzyl butyl phthalate] |  | 178.3 |  |
| O=C(OCc1ccccc1)c1ccccc1O [Benzyl salicylate] | 153.3 |  |  |
| CC[N+](CC)(CC)Cc1ccccc1 [Benzyl trialkyl ammonium compound C2:C2:C2 (BTAAC C2:C2:C2)] |  |  | collision cross section in nitrogen [7]: 143.1 Å² |
| CCCCC(CC)COC(=O)CCCCC(=O)OCc1ccccc1 (centres undefined) [Benzyloctyl adipate] |  | 191.9 |  |
| C[N+](C)(C)Cc1ccccc1 [Benzyltrimethylammonium chloride] |  |  | collision cross section in nitrogen [7]: 131.9 Å² |
| C[N+](C)(C)Cc1ccccc1 [Benzyltrimethylammonium hydroxide] |  |  | collision cross section in nitrogen [7]: 131.3 Å² |
| O=c1[nH]c2ccc(S(=O)CCN3CCC(Cc4ccc(F)cc4)CC3)cc2o1 (centres undefined) [Besonprodil] | 188.5 | 202 | collision cross section in nitrogen [2]: 203.6 Å²; collision cross section in nitrogen [3]: 203.4 Å² |
| C[N+](C)(C)CC(=O)[O-] [Betaine] |  | 133.3 | collision cross section in nitrogen [3]: 121.4 Å² |

| Structure (SMILES) | collision cross section in nitrogen [1] [Å²] | collision cross section in nitrogen [4] [Å²] | other results |
| --- | --- | --- | --- |
| C[C@H]1C[C@H]2[C@@H]3CCC4=CC(=O)C=C[C@]4(C)[C@@]3(F)[C@@H](O)C[C@]2(C)[C@@]1(O)C(=O)COP(=O)(O)O [Betamethasone 21-phosphate disodium] | 199.8 | 211.7 |  |
| CCCCC(=O)O[C@]1(C(=O)CO)[C@@H](C)C[C@H]2[C@@H]3CCC4=CC(=O)C=C[C@]4(C)[C@@]3(F)[C@@H](O)C[C@@]21C [Betamethasone valerate] | 215.5 |  |  |
| C[C@H]1C[C@H]2[C@@H]3CCC4=CC(=O)C=C[C@]4(C)[C@@]3(F)[C@@H](O)C[C@]2(C)[C@@]1(O)C(=O)CO [Betamethasone] |  | 215.2 | collision cross section in nitrogen [3]: 177.2 Å² |
| C=C(c1ccc(C(=O)O)cc1)c1cc2c(cc1C)C(C)(C)CCC2(C)C [Bexarotene] | 208.7 |  |  |
| CC(C)(Oc1ccc(CCNC(=O)c2ccc(Cl)cc2)cc1)C(=O)O [Bezafibrate] |  | 189 | collision cross section in nitrogen [2]: 178.5 Å²; collision cross section in nitrogen [3]: 177.8 Å² |
| COc1ccc(-c2ccccc2)cc1NNC(=O)OC(C)C [Bifenazate] |  | 185.7 |  |
| COc1ccc(-c2coc3cc(O)cc(O)c3c2=O)cc1 [Biochanin A] | 168 | 175 | collision cross section in nitrogen [2]: 164.6 Å²; collision cross section in nitrogen [3]: 164.1 Å² |
| CC(C)=C[C@@H]1[C@@H](C(=O)OCc2coc(Cc3ccccc3)c2)C1(C)C [Bioresmethrin] |  | 188.3 |  |
| O=C(O)CCCC[C@@H]1SC[C@H]2NC(=O)N[C@@H]12 [Biotin] | 155.5 | 159.6 | collision cross section in nitrogen [2]: 149.9 Å²; collision cross section in nitrogen [3]: 149.3 Å² |
| CC(C)c1cccc(C(C)C)c1N=C=Nc1c(C(C)C)cccc1C(C)C [Bis(2,6-diisopropylphenyl)carbodiimide] |  |  | collision cross section in nitrogen [2]: 189.6 Å²; collision cross section in nitrogen [3]: 190.5 Å² |
| CCCCOCCOC(=O)CCCCCCCCC(=O)OCCOCCCC [Bis(2-butoxyethyl) decanedioate] |  | 197.8 |  |
| CCCCOCCOC(=O)c1ccccc1C(=O)OCCOCCCC [Bis(2-butoxyethyl) phthalate] |  | 187.5 |  |
| CCCCC(CC)COC(=O)CCCCCCCCC(=O)OCC(CC)CCCC (centres undefined) [Bis(2-ethylhexyl) decanedioate] |  | 224.2 |  |
| CCCCC(CC)COC(=O)/C=C\C(=O)OCC(CC)CCCC (centres undefined) [Bis(2-ethylhexyl) maleate] |  | 207.2 |  |
| CCCCC(CC)COC(=O)CCCCCCCC(=O)OCC(CC)CCCC (centres undefined) [Bis(2-ethylhexyl) nonanedioate] |  | 222.3 |  |
| CCCCC(CC)COP(=O)(O)OCC(CC)CCCC (centres undefined) [Bis(2-ethylhexyl) phosphate] | 187 | 201 |  |
| CCCCC(CC)COC(=O)c1c(Br)c(Br)c(Br)c(Br)c1C(=O)OCC(CC)CCCC (centres undefined) [Bis(2-ethylhexyl) tetrabromophthalate] |  | 240.6 |  |
| CCCCC(CC)COC(=O)CCCCC(=O)OCC(CC)CCCC (centres undefined) [Bis(2-ethylhexyl)hexanedioate] |  | 216.5 |  |
| CC(CCOC(=O)c1ccccc1C(=O)OCC[C@@H](C)CC(C)(C)C)CC(C)(C)C (some centres undefined) [Bis(3,5,5-trimethylhexyl) phthalate] |  | 219.6 |  |
| CN(C)c1ccc(C(=O)c2ccc(N(C)C)cc2)cc1 [Bis(4-(dimethylamino)phenyl)methanone] |  | 175.8 | collision cross section in nitrogen [2]: 166.8 Å²; collision cross section in nitrogen [3]: 166.5 Å² |
| Oc1ccc(Cc2ccc(O)cc2)cc1 [Bis(4-hydroxyphenyl)methane] | 153.6 |  |  |
| C=C(C)C(=O)OCCOP(=O)(O)OCCOC(=O)C(=C)C [Bis(methacryloyloxyethyl) hydrogen phosphate] |  | 169.5 |  |
| CC(C)(c1ccc(O)c(-c2ccccc2)c1)c1ccc(O)c(-c2ccccc2)c1 [BisOPP-A] | 204 |  |  |
| CCCCOCCOCCOC(=O)CCCCC(=O)OCCOCCOCCCC [Bis[2-(2-butoxyethoxy)ethyl] adipate] |  | 198.8 | collision cross section in nitrogen [2]: 203.8 Å²; collision cross section in nitrogen [3]: 205.4 Å² |
| c1cc(OCC2CO2)ccc1Cc1ccc(OCC2CO2)cc1 (centres undefined) [Bis[4-(glycidyloxy)phenyl]methane] |  | 169 |  |
| O=C1C=CC(=O)N1c1ccc(Cc2ccc(N3C(=O)C=CC3=O)cc2)cc1 [Bismaleimide] | 174.3 | 182.7 | collision cross section in nitrogen [2]: 197.5 Å² |
| CC(C)(c1ccc(OCC2CO2)cc1)c1ccc(OCC2CO2)cc1 (centres undefined) [Bisphenol A diglycidyl ether] |  | 176.7 |  |
